# According to paper PMC12264794, “Homoleptic complexes of titanium(IV) fused with O^N^O Schiff base derivatives: design, BSA–DNA interaction, molecular docking, DFT and cytotoxicity” (RSC Advances, 2025):
# Like-named read-outs stand apart in the source and are kept apart here.
# Legend:
# BSA = target: T1, BSA (Bos taurus, UniProt P02769); test: BSA fluorescence quenching titration; format: binding, bovine; conditions: for KBSA, Stern–Volmer quenching constant: BSA 3 × 10^−6 M, PBS pH 7.4; for Kq, quenching rate constant: τ0 = 1 × 10^−8
# T1 construct: purchased Himedia Chemicals
# T1 sequence (P02769 25-607): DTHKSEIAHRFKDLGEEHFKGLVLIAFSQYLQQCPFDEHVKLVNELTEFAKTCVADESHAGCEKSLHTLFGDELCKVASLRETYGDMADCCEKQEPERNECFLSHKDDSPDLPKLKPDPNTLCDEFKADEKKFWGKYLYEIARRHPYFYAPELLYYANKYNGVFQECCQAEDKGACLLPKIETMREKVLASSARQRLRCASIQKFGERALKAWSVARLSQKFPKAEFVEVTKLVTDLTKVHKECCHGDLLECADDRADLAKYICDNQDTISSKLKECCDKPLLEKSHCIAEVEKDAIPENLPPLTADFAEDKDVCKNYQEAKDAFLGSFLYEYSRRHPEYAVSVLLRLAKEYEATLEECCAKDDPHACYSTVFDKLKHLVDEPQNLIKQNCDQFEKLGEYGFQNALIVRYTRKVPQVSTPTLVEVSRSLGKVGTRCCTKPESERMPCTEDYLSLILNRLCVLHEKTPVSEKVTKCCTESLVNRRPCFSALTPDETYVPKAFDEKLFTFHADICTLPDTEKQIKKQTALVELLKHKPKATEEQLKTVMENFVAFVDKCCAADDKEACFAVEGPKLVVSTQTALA
# Description: BSA stock solution (5 mM) was prepared in 5 mM phosphate buffer (pH 7.4) and then kept at 2–6 °C. The binding mechanism of the Ti(IV) complexes with BSA was established using fluorescence titration at 200–500 nm. Metal complexes with BSA were quenched by tracking changes in the fluorescence intensity at a certain excitation wavelength of 285 nm and emission value at 345 nm, respectively.[52] Identical excitation and emission scan rates and slit widths were employed in all investigations. In order to titrate against different metal complex concentrations ranging from 0 to 80 μM, a constant protein concentration of BSA was used. Similarly, the synchronous fluorescence spectra were also acquired by titrating different metal complex concentrations ranging from 0 to 80 μM while maintaining a constant BSA at the specified excitation wavelengths, λ = 15 nm and 60 nm.[53,54]
# Ti(IV) complexes of (1 × 10^−5 M) concentration were gradually added, ranging from 0 to 72 μM to bind with BSA (3 × 10^−6 M) of fixed concentration in PBS buffer of pH 7.4. […] This phenomenon might be caused by modifications to the secondary or tertiary structures of BSA, which could have an impact on the tryptophan residues of the BSA microenvironment. Typically, the Stern–Volmer eqn (8) can be used to characterize fluorescence quenching.8 I0/I = 1+KBSA[Q] = 1 + kqτ0[Q]where τ0 is the lifetime of the tryptophan in BSA, which is determined to be 1 × 10^−8, kq is the quenching constant, I0 is the fluorescence intensity of BSA in the absence of complex and I denotes the fluorescence intensities of BSA in the presence of a complex of concentration [Q]. The quenching rate constant, dynamic quenching constant, average lifetime without quencher, and quencher concentration of the biomolecule are represented by the values of kq, KBSA, τ0 and [Q], respectively.
# The binding constant (Kb) and the number of binding sites (n) for the static quenching interaction can be determined using the Scatchard eqn (9),9 Log(I0 − I/I) = log K + n log[Q]where I0 and I are the fluorescence intensities of BSA with and without quenchers (complexes). Fig. 7(c), Table 3 and ESI Fig. S70 ^† display the double logarithmic plot of log[I0 − I/I] vs. log[complex].
# HeLa cells = test: MTT cytotoxicity assay, HeLa; format: cell-based, human; conditions: for IC50: 48 h of drug exposure; for Selectivity: HeLa cell lines
# Description: The in vitro cytotoxicity of the Ti(IV) complexes under investigation was investigated using MTT, a micro-titration colorimetric method. The in vitro cytotoxicity test of the Ti(IV) complexes was evaluated against the cervical cancer cell line (HeLa), human breast cancer cell line (MCF-7) and human kidney normal cell line (HEK-293).[65,66]
# In the cytotoxicity assay, tetrazolium salt 3-[4,5-dimethylthiazol-2-yl]-2,5diphenyl tetrazolium bromide (MTT) was utilized to assess cell viability. The MTT powder was diluted in Dulbecco's PBS (stock solution of MTT (5 mg mL^−1)) to attain a final concentration of 0.5 mg mL^−1 and a […] was used to filter and sterilize the stock solution, which was then kept at 2–6 °C. In metabolically active cells, MTT is reduced to produce an insoluble purple formazan product. In the exponential phase, cells were taken out of the stored cultures after the 48-hour recovery period, following seeding onto 96-well plates at a density of 1 × 10^4 cells per well in 100 μL medium at 37 °C in a 95% air and 5% CO2 environment, and the cells were incubated for 12 hours. Cell lines were treated for 48 hours with Ti(IV) complexes at varying doses (9.5–300 μM) and cis-platin as a control (apart from normal cells). After 48 hours of incubation at 37 °C, the medium was removed and 100 μL of DMSO was added to dissolve the […], and the culture plates were shaken for five minutes. A Bio-Rad xMARK™ multi-well plate reader was used to measure the absorbance of each well at 570 nm. Using eqn (2), the percentage viability, which represents the relative viability of the treated cells in comparison to the control cells, was calculated, and the IC50 values and standard deviation of the substances under investigation were calculated in triplicate.2 [drawing 2]
# An MTT assay was used to examine the cytotoxic effectiveness of the produced Ti(IV) complexes. After 48 hours of incubation, the cytotoxicity of Ti-1-IS to Ti-6-IBr was evaluated against human cancer cell lines, such as breast carcinoma (MCF7) and cervical cancer (HeLa), as well as the non-cancerous human embryonic kidney (HEK) cell line, by using the widely used therapeutic drug, cis-platin, as a positive control by following the standard protocol.
# [1] = n-Octanol/water partition coefficient, shake flask method; format: physicochemical; conditions: partition coefficient of n-octanol/water
# Description: Drugs were measured for oral bioavailability and cellular accumulation using their lipophilicity. This can be stated as the log P value of the n-octanol/water partition coefficient, which is an essential prerequisite for many in silico medicinal chemistry approaches. The n-octanol/water partition coefficient (log Po/w), where Po/w = the octanol/water partition coefficient, was analyzed using the shake flask method. The experimental log Po/w values of these complexes were discovered to be between 0.12 and 0.87 (ESI Fig. S60 ^† and Table 1).
# [2] = Scatchard plot, 298 K, no site probe
Structure (SMILES),"KBSA, Stern–Volmer quenching constant (BSA) [M⁻¹]","n, number of binding sites (BSA) (BSA; Scatchard plot, 298 K)",Kb binding constant (BSA) (BSA; [2]) [M⁻¹],"Kq, quenching rate constant (BSA) [M⁻¹ s⁻¹]",IC50 (HeLa cells) [µM],Log Po/w [1],KBSA (BSA) [M⁻¹],Selectivity (HeLa cells),Kb binding constant (BSA) (BSA) [M⁻¹]
[O-]C(=NN=Cc1c([O-])ccc2ccccc12)c1ccncc1.[O-]C(=NN=Cc1c([O-])ccc2ccccc12)c1ccncc1.[Ti+4] [Ti-2-IN],105000,1.26,470,1.05e+13,74.04 ± 0.5,0.78,–,–,–
COc1cccc(C=NN=C([O-])c2ccncc2)c1[O-].COc1cccc(C=NN=C([O-])c2ccncc2)c1[O-].[Ti+4] [Ti-3-IO],277000,1.42,360,2.77e+13,27.2 ± 1.1,0.13,277000,> 29,–
[O-]C(=NN=Cc1ccccc1[O-])c1ccncc1.[O-]C(=NN=Cc1ccccc1[O-])c1ccncc1.[Ti+4] [Ti-1-IS],175000,1.31,400,1.75e+13,61.76 ± 0.1,0.87,–,–,–
Brc1ccc2c(c1)C=NN=C(c1ccncc1)[O][Ti]1([O]C(c3ccncc3)=NN=Cc3cc(Br)ccc3[O]1)[O]2 (stereo not shown) [Ti-6-IBr],85000,1.35,140,8.5e+12,78.64 ± 0.2,0.15,–,–,–
[O-]C(=NN=Cc1cc(F)ccc1[O-])c1ccncc1.[O-]C(=NN=Cc1cc(F)ccc1[O-])c1ccncc1.[Ti+4] [Ti-4-IF],197000,1.60,110,1.97e+13,47.3 ± 0.5,0.12,–,–,–
[O-]C(=NN=Cc1cc(Cl)ccc1[O-])c1ccncc1.[O-]C(=NN=Cc1cc(Cl)ccc1[O-])c1ccncc1.[Ti+4] [Ti-5-ICl],112000,1.07,650,1.12e+13,24.2 ± 0.7,0.31,–,> 26,650
